Reference: publication PMC9611727, “Optimization of a Novel Mandelamide-Derived Pyrrolopyrimidine Series of PERK Inhibitors” (Pharmaceutics, 2022)

Columns and labels:
Assay in all cases: scanMAX kinase panel
Assay type in all cases: binding
[1] = target: T1, YANK2 (Homo sapiens, UniProt Q9NY57); settings: read-out: % Control; for remaining binding at 1 µM: 1000 nM
T1 construct: purchased DiscoverX (scanMAX panel)
Description: (§1) Supplemental Table S2. scanMAXSM Kinome Assay Results. Complete tabulated data of all 468 kinases from the panel, including
(§2) 403 wild-type and 65 mutant isoforms. […] Cmpd 11 and Cmpd 24

[2] = target: T2, MAP3K15 (Homo sapiens, UniProt Q6ZN16); settings: read-out: % Control; for remaining binding at 1 µM: 1000 nM
T2 construct: purchased DiscoverX scanMAX
T2 sequence (Q6ZN16 1-1313): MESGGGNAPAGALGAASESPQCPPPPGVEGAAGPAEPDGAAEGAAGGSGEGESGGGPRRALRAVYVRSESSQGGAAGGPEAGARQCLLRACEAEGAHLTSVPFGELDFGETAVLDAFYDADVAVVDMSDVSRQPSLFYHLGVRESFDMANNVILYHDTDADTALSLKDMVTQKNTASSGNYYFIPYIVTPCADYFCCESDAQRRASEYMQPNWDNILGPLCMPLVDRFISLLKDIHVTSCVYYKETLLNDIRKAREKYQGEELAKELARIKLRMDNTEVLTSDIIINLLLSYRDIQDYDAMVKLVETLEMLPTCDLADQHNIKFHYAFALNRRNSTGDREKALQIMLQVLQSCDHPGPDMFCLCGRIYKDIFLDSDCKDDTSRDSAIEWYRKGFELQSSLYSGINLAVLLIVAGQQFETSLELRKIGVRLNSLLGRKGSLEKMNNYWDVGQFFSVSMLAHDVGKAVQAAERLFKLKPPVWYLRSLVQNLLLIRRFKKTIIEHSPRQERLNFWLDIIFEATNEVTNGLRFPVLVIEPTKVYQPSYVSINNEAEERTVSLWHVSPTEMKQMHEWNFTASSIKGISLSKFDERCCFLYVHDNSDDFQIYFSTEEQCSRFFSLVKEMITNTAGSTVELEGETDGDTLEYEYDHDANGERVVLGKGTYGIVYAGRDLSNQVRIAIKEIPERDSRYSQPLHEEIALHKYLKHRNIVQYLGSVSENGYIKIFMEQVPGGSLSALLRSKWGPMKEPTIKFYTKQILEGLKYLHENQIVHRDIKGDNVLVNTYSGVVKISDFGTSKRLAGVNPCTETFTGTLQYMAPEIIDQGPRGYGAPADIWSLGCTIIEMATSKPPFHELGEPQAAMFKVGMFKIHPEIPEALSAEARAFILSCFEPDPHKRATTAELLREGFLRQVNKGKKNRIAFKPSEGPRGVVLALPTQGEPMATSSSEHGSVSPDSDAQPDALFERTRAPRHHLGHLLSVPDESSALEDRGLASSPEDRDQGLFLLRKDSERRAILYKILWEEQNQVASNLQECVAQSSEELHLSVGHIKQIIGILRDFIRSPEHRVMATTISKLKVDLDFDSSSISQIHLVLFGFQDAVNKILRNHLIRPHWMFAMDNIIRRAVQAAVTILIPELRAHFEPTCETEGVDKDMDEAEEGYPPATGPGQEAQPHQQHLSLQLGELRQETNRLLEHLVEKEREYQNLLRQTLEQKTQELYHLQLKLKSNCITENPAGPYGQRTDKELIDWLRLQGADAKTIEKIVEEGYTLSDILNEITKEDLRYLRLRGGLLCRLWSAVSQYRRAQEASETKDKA
Description: as §1, §2

[3] = target: T3, KIT (Homo sapiens, UniProt P10721); settings: read-out: % Control; for remaining binding at 1 µM: 1000 nM
T3 construct: purchased DiscoverX scanMAX
Description: as §1, §2

[4] = target: T4, FLT3(D835Y) (Homo sapiens, UniProt P36888, D835Y); settings: read-out: % Control; for remaining binding at 1 µM: 1000 nM
T4 construct: purchased DiscoverX scanMAX
T4 sequence (P36888 27-993 D835Y): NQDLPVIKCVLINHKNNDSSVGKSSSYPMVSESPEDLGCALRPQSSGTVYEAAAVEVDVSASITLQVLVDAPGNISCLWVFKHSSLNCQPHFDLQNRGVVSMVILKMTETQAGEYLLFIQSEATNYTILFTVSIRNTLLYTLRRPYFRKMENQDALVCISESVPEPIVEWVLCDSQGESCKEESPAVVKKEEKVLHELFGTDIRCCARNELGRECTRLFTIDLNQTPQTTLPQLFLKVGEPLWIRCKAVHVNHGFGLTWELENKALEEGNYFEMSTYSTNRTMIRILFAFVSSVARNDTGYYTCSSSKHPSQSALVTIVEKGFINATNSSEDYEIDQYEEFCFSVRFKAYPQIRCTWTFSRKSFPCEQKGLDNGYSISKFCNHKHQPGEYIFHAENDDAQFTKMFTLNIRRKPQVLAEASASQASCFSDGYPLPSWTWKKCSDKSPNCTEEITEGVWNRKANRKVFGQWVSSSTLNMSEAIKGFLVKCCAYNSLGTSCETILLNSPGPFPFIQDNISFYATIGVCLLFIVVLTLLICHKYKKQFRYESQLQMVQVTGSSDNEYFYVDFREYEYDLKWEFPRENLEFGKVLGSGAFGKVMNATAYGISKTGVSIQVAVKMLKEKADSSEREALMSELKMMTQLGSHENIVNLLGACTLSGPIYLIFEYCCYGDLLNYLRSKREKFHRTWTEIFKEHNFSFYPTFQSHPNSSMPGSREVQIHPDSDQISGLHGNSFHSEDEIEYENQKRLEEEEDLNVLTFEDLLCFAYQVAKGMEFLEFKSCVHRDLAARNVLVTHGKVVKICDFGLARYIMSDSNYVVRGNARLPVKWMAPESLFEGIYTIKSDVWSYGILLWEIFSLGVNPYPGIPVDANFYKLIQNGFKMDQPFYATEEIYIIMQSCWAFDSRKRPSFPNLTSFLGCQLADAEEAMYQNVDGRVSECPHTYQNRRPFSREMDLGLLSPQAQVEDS
Description: as §1, §2

[5] = target: T5, CAMK4 (Homo sapiens, UniProt Q16566); settings: read-out: % Control; for remaining binding at 1 µM: 1000 nM
T5 construct: purchased DiscoverX scanMAX
T5 sequence (Q16566 1-473): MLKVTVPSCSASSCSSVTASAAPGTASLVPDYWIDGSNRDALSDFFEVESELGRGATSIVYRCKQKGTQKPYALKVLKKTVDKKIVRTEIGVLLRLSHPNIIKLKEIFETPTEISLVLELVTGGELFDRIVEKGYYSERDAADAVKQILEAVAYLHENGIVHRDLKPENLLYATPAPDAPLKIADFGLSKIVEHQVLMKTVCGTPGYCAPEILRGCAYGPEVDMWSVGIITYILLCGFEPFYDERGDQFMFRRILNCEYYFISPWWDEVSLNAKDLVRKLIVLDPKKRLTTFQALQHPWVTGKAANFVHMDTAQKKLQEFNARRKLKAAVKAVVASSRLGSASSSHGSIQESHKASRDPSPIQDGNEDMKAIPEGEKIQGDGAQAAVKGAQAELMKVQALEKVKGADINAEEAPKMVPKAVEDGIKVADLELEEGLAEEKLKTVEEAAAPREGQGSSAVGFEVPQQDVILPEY
Description: as §1, §2

[6] = tested on: FLT3(ITD,F691L)
Description: as §1, §2

T3 sequence (P10721 26-976): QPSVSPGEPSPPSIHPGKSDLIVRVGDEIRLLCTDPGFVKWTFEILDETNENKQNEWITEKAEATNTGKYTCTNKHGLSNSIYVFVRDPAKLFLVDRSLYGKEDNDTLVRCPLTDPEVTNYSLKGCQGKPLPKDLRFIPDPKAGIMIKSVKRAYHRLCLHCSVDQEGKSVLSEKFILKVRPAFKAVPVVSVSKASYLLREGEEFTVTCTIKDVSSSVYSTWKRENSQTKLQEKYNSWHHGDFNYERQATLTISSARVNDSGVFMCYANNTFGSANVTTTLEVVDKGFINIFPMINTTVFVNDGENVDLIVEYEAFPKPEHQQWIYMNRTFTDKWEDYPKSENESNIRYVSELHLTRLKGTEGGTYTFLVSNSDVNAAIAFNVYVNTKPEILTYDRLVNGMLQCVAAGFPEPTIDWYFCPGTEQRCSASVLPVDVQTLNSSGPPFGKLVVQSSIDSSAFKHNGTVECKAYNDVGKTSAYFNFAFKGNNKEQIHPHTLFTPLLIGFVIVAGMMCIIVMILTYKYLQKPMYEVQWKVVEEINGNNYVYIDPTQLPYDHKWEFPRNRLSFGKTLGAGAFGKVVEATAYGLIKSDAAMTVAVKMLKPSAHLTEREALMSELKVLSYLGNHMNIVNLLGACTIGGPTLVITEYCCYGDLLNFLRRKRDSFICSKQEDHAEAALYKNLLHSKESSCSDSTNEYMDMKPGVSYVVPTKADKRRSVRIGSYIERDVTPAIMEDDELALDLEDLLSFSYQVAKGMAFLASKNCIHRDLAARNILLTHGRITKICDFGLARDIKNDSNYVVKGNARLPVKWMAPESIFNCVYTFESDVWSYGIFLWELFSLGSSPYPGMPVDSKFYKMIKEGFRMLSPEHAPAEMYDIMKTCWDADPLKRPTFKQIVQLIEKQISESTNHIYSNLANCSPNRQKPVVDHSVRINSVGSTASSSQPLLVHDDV
T1 sequence (Q9NY57 whole entry): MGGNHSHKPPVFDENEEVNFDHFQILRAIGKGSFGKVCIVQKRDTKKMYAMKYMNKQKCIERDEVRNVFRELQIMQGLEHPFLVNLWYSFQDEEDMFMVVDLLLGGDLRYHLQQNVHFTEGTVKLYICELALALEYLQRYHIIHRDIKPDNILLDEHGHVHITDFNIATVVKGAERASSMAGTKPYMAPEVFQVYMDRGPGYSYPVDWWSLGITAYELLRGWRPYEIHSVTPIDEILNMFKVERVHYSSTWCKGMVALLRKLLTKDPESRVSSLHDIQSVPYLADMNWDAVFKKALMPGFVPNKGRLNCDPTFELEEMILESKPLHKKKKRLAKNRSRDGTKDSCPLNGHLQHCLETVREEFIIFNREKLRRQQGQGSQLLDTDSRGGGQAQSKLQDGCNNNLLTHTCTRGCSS

Row | Structure (SMILES) | remaining binding at 1 µM [1] [%] | remaining binding at 1 µM [2] [%] | remaining binding at 1 µM [3] [%] | remaining binding at 1 µM [4] [%] | remaining binding at 1 µM [5] [%] | % Control ([6]; 1000 nM) [%] | remaining binding at 0.1 µM ([1]; 100 nM) [%] | remaining binding at 0.1 µM ([2]; 100 nM) [%] | remaining binding at 0.1 µM ([3]; 100 nM) [%] | remaining binding at 0.1 µM ([4]; 100 nM) [%] | remaining binding at 0.1 µM ([5]; 100 nM) [%] | % Control ([6]; 100 nM) [%]
1 | Cc1cc(NC(=O)[C@H](O)c2cccc(F)c2)ccc1-c1cn(C)c2ncnc(N)c12 [Compound 11, (R)-N-(4-(4-amino-7-methyl-7H-pyrrolo[2,3-d]pyrimidin-5-yl)-3-methylphenyl)-2-(3-fluorophenyl)-2-hydroxy acetamide] | 11 | 29 | 38 | 80 | 32 | 100 |  |  |  |  |  | 
2 | Cc1nc(N)c2c(-c3ccc(NC(=O)[C@H](O)c4cccc(C(F)(F)F)c4)cc3C)cn(C)c2n1 [Compound 26] | 63 | 99 | 0.65 | 35 | 75 | 42 | 92 | 100 | 97 | 88 | 100 | 41
3 | Cc1nc(N)c2c(-c3ccc(NC(=O)[C@H](O)c4cccc(F)c4)cc3C)cn(C)c2n1 [Compound 24] | 100 | 82 | 100 | 96 | 100 | 63 |  |  |  |  |  | 
